Experiments:
[1] = test system: PMN's (polymorphonuclear leukocytes); assay: Neutrophil oxidative burst; format: cell-based; conditions: Leukocyte, 40 min; normalized to positive control 5×10^−7 M PEP0005; 40 min incubation at RT; read-out: Neutrophil oxidative burst Rel EC50
Description: PMN's (polymorphonuclear leukocytes) were isolated and purified from fresh buffy coats by sequential sedimentation, density centrifugation and lysis of contaminating erythrocytes. Buffy coats were incubated with 2% methocel for 30-45 min to differentially sediment red blood cells. The leukocyte-rich supernatant was transferred to lymphoprep tubes to remove mononuclear cells by density centrifugation (400×g, 30 min). The pellet was resuspended and any remaining erythrocytes lysed using 0.2% NaCl for 30 sec before restoring isotonicity by the addition of 1.2% NaCl. This step was repeated until the cell pellet appears relatively free of red blood cells. Cells were resuspended in DPBS (Dulbecco's Phosphate Buffered Saline) (w.o. Ca^2+, Mg^2+) and the concentration adjusted to 1.4×10^6 cells/ml in HBSS (Hanks Balanced Salt solution) (w Ca^2+, Mg^2+) containing 0.1% BSA (Bovine Serum Albumin) and 5 mM glucose just prior to assay initiation. Titrated reference and test compounds were pre-mixed with HE (Hydroethidine) (10 μM final assay concentration) before addition to 96-well plates containing 2.5×10^5 cells. Following 40 min incubation at RT, changes in the respiratory burst was estimated by measuring fluorescence at 579 nm (excitation: 485 nm) using an Envision plate reader.
(§1) Test compound titration curves were fitted to a four-parameter sigmoidal curve after normalizing the effect of the test compound to the effect of the positive control (5×10^−7 M PEP0005). Rel EC50 (relative EC50) denotes the concentration of test compound producing an effect that is midway between the fitted top and bottom.

[2] = test system: Primary human epidermal keratinocytes, HeKa; assay: HeKa cytokine release (IL-8); format: cell-based; conditions: normalized to positive control 1.5×10^−7 M PEP0005, 6 h incubation, read-out: HeKa cytokine release (IL-8) Rel EC50
Description: Primary human epidermal keratinocytes, HeKa, were seeded (10.000 cells/well) in 96-well plates the day before the assay. Test compounds were diluted in DMSO (dimethyl sulfoxide) and further diluted in assay medium and pipetted into wells of 96 well-plates containing HeKa cells. The plates were incubated for 6 h at 37° C. in humidified air with 5% CO2. Plates were centrifuged briefly to spin down cells at 4° C., the supernatant was removed and analysed by Meso Scale Discovery (MSD) 4-spot cytokine assay (Pro-inflammatory II Ultra Sensitive kit, MSD, MD, USA). The MSD assay employs a sandwich immunoassay format where capture antibodies are coated in a patterned array on the bottom of the wells of a 4-Spot-Multi-MSD plate. Standard samples were incubated in the MULTI-SPOT plates as well, and the cytokine (IL-8) binds to its corresponding capture antibody spot. The cytokine level was quantitated on a SECTOR™ Imager using a cytokine-specific Detection Antibody labelled with MSD SULFO-TAG™ reagent.
as §1, with “(1.5×10^−7” for “(5×10^−7”

[3] = target: Human Protein Kinase C delta (PKCδ) (Homo sapiens (Human), UniProt Q05655); assay: PKC δ binding assay; format: biochemical; conditions: kinase activation, γ-33P-ATP, normalized to the effect of DMSO; read-out: PKC-δ binding Rel EC50
Description: On the day at experiment Human Protein Kinase C delta (PKCδ, Millipore cat#14-504) was diluted in 20 mM HEPES, 0.03% Triton X-100. Amount of enzyme in each assay was 7.25 ng (final assay volume is 25 μL). All compounds for testing were diluted to 1 mM in 100% DMSO as an intermediary dilution. The compounds were then diluted further to 50 μM, and then serially diluted in 100% DMSO in semi-logarithmic decrements for 12 points. 0.5 μL of each concentration, in duplicate, was pipetted into a dry 96 well assay plate using a TTP Mosquito. Control and blank wells received 0.5 μL of 100% DMSO instead of compound. The assay was built with the addition of 14.5 μL of assay mixture, containing appropriately diluted enzyme and 20 mM HEPES pH 7.4, 0.03% Triton X-100, 0.05 mg/mL phosphatidylserine, and 50 μM ERMRPRKRQGSVRRRV. The assay was started with the addition of 10 μL ATP containing γ-33P-ATP] (specific activity approx. 500 cpm/pmol), to a final assay concentration of 15 μM. The reaction was allowed to proceed at room temperature for 40 minutes before the addition of 5 μL 3% ortho-phosphoric acid. Blank wells were acid blanks, and had 5 μL 3% ortho-phosphoric acid added before the addition of ATP. 10 μL of the stopped reaction products was transferred to a P30 filtermat which was then washed 4 times in 75 mM ortho-phosphoric acid, and once in methanol before drying. The filter was read by liquid scintillation counting using a Wallac Trilux. Rel EC50 (relative EC50) denotes the concentration of test compound that produces a response half-way between the fitted top and the fitted bottom of the curve when activities are normalized to the effect of DMSO.

[4] = target: Human Protein Kinase C betaII (PKCbII) (Homo sapiens (Human), UniProt P05771); assay: PKCbetaII activity assay; format: biochemical; conditions: γ-33P-ATP, normalized to the effect of DMSO, read-out: PKC-β binding Rel EC50
Description: On the day at experiment Human Protein Kinase C betaII (PKCbII, Millipore cat#14-496) was incubated with 20 mM HEPES pH 7.4, 0.03% Triton X-100, 0.1 mM CaCl2, 0.1 mg/mL phosphatidylserine, 0.1 mg/mL histone H1, 10 mM MgAcetate. Amount of enzyme in each assay was 1.8 ng (final assay volume is 25 μL). The compounds were then diluted to 500 μM, and then serially diluted in 100% DMSO in semi-logarithmic decrements for 12 points. 0.5 μL of each concentration, in duplicate, was pipetted into a dry 96 well assay plate using a TIP Mosquito. Control and blank wells received 0.5 μL of 100% DMSO instead of compound. 14.5 μl kinase in assay buffer was added to each well. The assay was started with the addition of 10 μL ATP containing γ-33P-ATP] (specific activity approx. 500 cpm/pmol), to a final assay concentration of 70 μM. The reaction was allowed to proceed at room temperature for 40 minutes before the addition of 5 μL 3% ortho-phosphoric acid. Blank wells were acid blanks, and had 5 μL 3% ortho-phosphoric acid added before the addition of ATP. 10 μL of the stopped reaction products was transferred to a P30 filtermat which was then washed 4 times in 75 mM ortho-phosphoric acid, and once in methanol before drying. The filter was read by liquid scintillation counting using a Wallac Trilux. Rel EC50 (relative EC50) denotes the concentration of test compound that produces a response half-way between the fitted top and the fitted bottom of the curve when activities are normalized to the effect of DMSO.

Chain of Human Protein Kinase C betaII (PKCbII) (P05771 other isoform, or with tags, fused parts or gaps): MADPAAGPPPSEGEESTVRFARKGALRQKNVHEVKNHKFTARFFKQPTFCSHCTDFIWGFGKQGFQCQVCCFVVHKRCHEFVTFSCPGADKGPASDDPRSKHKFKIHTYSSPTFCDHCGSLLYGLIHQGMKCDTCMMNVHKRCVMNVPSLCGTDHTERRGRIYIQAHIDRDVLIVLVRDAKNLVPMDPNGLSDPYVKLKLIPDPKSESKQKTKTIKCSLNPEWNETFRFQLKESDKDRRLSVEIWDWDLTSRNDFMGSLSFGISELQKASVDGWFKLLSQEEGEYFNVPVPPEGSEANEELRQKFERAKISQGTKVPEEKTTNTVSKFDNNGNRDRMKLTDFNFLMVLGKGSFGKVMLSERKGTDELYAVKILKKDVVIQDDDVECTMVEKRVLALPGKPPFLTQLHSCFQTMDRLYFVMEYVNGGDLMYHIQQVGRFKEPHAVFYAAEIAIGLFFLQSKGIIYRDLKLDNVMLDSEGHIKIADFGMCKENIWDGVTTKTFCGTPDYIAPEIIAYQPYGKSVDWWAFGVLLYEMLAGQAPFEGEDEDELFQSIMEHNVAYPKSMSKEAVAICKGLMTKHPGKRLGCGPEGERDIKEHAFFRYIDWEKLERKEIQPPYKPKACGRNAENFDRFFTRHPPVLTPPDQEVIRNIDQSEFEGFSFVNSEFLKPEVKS
Chain of Human Protein Kinase C delta (PKCδ) (Q05655 whole entry): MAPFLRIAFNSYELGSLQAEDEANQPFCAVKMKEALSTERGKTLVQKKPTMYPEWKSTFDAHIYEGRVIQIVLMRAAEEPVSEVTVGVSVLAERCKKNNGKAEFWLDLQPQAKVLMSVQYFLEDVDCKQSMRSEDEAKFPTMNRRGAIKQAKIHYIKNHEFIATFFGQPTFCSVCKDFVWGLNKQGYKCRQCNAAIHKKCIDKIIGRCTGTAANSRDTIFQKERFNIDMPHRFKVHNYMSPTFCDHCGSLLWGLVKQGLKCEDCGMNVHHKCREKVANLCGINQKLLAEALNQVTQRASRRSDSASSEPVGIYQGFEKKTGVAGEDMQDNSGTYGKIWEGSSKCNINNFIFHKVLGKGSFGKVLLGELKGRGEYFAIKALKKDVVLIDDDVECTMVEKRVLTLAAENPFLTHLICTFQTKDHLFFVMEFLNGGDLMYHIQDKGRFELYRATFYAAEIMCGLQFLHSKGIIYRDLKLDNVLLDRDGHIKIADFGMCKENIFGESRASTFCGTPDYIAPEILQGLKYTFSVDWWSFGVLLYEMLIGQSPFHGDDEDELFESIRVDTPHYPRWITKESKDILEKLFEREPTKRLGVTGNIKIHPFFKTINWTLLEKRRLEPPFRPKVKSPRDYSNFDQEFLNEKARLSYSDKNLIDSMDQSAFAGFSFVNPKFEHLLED

Row | Structure (SMILES) | EC50 [1] | EC50 [2] | EC50 [3] | EC50 [4]
1 | CC1=C[C@]23C(=O)[C@@H](C=C(CO)[C@@H](O)[C@@H]2[C@H]1OC(=O)C1(C)CCCCC1)[C@H]1[C@@H](C[C@H]3C)C1(C)C [Compound 7, 4-deoxyingenol 3-(1-methyl-cyclohexanecarboxylate)] | 9 nM | 35 nM | 154 nM | 0.2 nM
2 | CC1=C[C@]23C(=O)[C@@H](C=C(CO)C[C@@H]2[C@H]1OC(=O)C1(C)CCCCC1)[C@H]1[C@@H](C[C@H]3C)C1(C)C [Compound 5, 4,5-dideoxyingenol 3-(1-methyl-cyclohexanecarboxylate)] | 13 nM | 130 nM | 1110 nM | 6 nM
3 | CC1=C[C@]23C(=O)[C@@H](C=C(CO)C[C@]2(O)[C@H]1OC(=O)C1(C)CCCCC1)[C@H]1[C@@H](C[C@H]3C)C1(C)C [Compound 6, 5-deoxyingenol 3-(1-methyl-cyclohexanecarboxylate)] | 7 nM | 26 nM | 80 nM | 0.8 nM
4 | CC1=C[C@@]23CC[C@@H]4[C@H]([C@H](C=C(CO)[C@@H](O)[C@]2(O)[C@H]1OC(=O)C1(C)CCCCC1)C3=O)C4(C)C [Compound 8, 11-desmethyl-ingenol 3-(1-methyl-cyclohexanecarboxylate)] | 4 nM | 4 nM | 7 nM | 0.1 nM
